In patent US5037837A, “Phenoxypropylamine derivatives or salts thereof and antiulcer agents containing the same” (Terumo Kabushiki Kaisha, priority 1989, dated 1991):

Experiments:
5-lipoxygenase = target: T1, 5-lipoxygenase (Rattus norvegicus, UniProt P12527); test: 5-Lipoxygenase-inhibiting activity; type: biochemical; details: RBL-1 cell supernatant; arachidonic acid 50 μg; 37° C., 15 min; 5-HETE by HPLC; read-out: 5-Lipoxygenase inhibiting activity, 50% Inhibition conc.
T1 construct: The supernatant is employed as an enzyme solution of a 5-lipoxygenase; endogenous in cells; host or cells: RBL-1 rat basophilic leukemia cells (supernatant of sonicated cells)
T1 sequence (P12527 1-673): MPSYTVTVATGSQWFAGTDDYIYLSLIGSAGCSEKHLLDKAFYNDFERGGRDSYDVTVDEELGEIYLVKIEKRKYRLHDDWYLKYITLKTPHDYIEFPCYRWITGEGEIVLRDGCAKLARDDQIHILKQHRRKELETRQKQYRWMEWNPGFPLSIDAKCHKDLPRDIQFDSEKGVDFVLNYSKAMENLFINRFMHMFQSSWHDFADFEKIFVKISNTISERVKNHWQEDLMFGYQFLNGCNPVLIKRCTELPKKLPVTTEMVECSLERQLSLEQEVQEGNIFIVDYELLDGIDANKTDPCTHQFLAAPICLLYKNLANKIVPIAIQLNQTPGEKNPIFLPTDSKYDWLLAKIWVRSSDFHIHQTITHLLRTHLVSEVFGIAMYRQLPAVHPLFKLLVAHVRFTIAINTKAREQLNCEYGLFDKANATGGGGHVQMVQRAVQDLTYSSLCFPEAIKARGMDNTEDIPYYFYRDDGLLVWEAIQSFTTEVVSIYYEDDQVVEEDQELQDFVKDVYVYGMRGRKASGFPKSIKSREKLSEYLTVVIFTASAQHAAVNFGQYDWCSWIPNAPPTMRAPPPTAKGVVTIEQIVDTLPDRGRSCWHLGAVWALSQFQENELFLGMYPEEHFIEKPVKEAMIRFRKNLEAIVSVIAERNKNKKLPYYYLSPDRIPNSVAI
Method: A suspension of rat-origin basophilic leukemia cell strain RBL-1 in an Eagle basal medium (manufactured by Gibco Laboratories) containing 10% FCS is cultivated in a 5% CO2 incubator at 37° C. The culture is then centrifuged at 4° C. to collect cells. The cells are re-suspended in a phosphate buffer solution at pH 7.4 to a cell density of 1.0×10^7 -3.0×10^7 cells/ml. The suspended cells are treated by an ultrasonic cell blender and then centrifuged at 15,000 rpm at 4° C. for 30 min. The supernatant is employed as an enzyme solution of a 5-lipoxygenase. In test tubes are placed 50 μg of arachidonic acid and a phenol derivative of the invention to be tested. To each of the test tubes are added 0.30 ml of phosphate buffer, 0.20 ml of the enzyme solution as prepared above and 5 μl of a 100 mM CaCl2 (calcium chloride) solution. The mixture is allowed to react at 37° C. for 15 min. To the reaction mixture, after ice-cooling, is added one drop of 1N HCl (hydrochloric acid), and the resulting mass is extracted with 2 ml of ethyl acetate. The extract is concentrated to dryness followed by the addition of 100 μl of methanol for use as a test specimen.
Said specimen is injected into octadecylsilane (ODS) reverse phase high performance liquid chromatography (HPLC), eluted with methanol - acetonitrile - water - acetic acid (15:45:35:0.01). Peak for 5-HETE (5-(s)-hydroxy-6,8,11,14-eicosatetraenoic acid), a 5-lipoxygenase product detected in approximately 25 min. is measured. The 5-lipoxygenase-inhibiting activity is determined by decrease in the peak for said 5-lipoxygenase product.
50% inhibitory concentration as referred to in the table means concentration of a phenol derivative required for controlling the production of […] as described above to 50% by introducing said phenol derivative when production of 5-HETE without phenol derivative of the invention is taken as 100%.

[1] = test system: ethanol hydrochloric acid ulcer; test: Inhibitory activity against ethanol hydrochloric acid ulcer; type: in vivo; details: SD male rats, 30 mg/kg orally, 1 hour before 150 mM HCl in 60% ethanol
Method: To SD male rats (weighing 150-250 g) fasted for 24 hours was administered orally a phenol derivative of the invention at a dose of 30 mg/kg bodyweight. One hour later, a hydrochloric acid solution in ethanol (containing 150 mM hydrochloric acid in 60% ethanol) was orally given in a volume of 0.5 ml/100 g bodyweight.
One hour later, the animals were sacrificed with ether. The stomach was excised and, after formalin treatment, measured for the length (mm) of lesions developed in glandular portions of the stomach. Total length of the lesions per animal was taken as ulcer index.
Percent inhibition of ulceration as referred to in the table is a value obtained by reducing from 1 the ulcer index for the rat with a phenol derivative of the invention orally given divided by the ulcer index for the orally nonadministered rat and multiplying the value by 100. The calculation is conducted by the formula shown below. [formula]

histamine H2 receptors = target: T2, histamine H2 receptors (Cavia porcellus, UniProt P47747); test: Antagonistic action against histamine H2 receptors (isolated right atrium); parameters: species or system Hartley male guinea pigs; details: guinea pig isolated right atrium, 30° C.; concentration for two-fold shift of the histamine dose-response curve; read-out: Antagonistic action against histamine H2 receptors, pA2 (converted)
T2 construct: Excised right atrium of Hartley male guinea pigs; from tissue; host or cells: isolated right atrium of male Hartley guinea pigs
T2 sequence (P47747 whole entry): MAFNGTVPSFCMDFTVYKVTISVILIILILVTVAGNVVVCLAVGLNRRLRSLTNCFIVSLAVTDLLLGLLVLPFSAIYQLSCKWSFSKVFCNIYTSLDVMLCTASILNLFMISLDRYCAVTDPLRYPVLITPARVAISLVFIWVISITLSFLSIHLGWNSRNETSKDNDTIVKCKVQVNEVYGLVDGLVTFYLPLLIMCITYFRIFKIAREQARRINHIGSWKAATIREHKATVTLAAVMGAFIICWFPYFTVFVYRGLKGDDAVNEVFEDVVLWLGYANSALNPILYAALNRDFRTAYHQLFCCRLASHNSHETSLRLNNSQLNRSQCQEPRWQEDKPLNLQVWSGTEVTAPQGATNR
Method: Excised right atrium of Hartley male guinea pigs (weighing 450-550 g) was used. Thus, the guinea pig was fainted by strongly hitting the occipital region, and then the chest opened to isolate the heart. The isolated heart was immersed in a Krebs-Henseleit nutrient solution at 30° C. which had sufficiently been aerated with 95% O2 +5% CO2. The right atrium with the right cardiac auricle attached thereto was separated carefully enough to avoid damages. Blood vessels and tissues attached around the separated organ were removed. Both ends of the separated right cardiac auricle were held with threaded Serfin, and the thread at one end was fixed in a tissue tank filled with the nutrient solution, and the thread at the other end connected to a tension measuring and recording instrument and loaded with 1-g weight. The nutrient solution in the tissue tank was maintained at a temperature of 30° C. and consistently aerated with a 95% O2 +5% CO2 gas. The nutrient solution was exchanged every 5-10 min.
After spontaneous contractions of the isolated right atrium specimen were stabilized, and the heart rate became constant, histamine was cumulatively introduced into the tissue tank. Thus, histamine was introduced cumulatively starting at 10^-7 M and gradually at 3×10^-7 M, 10^-6 M, […], and so on. When the heart rate became constant at a given concentration, the concentration was further increased, and the cumulative introduction of histamine was continued until the heart rate no more increased. There was then determined a histamine dose-response curve.
Antagonistic action of the phenol derivatives of the invention against histamine H2 receptors was tested using the isolated right atrium specimen previously employed for determining a histamine dose-response curve. Thus, said specimen with the increased heart rate by the cumulative introduction of histamine was repeatedly washed with a nutrient solution to remove the histamine. When the heart rate was decreased by the histamine removal to a constant level, a phenol derivative of the invention was introduced into the tissue tank. After the introduction of said phenol derivative, histamine was cumulatively introduced sufficiently to determine a histamine dose-response curve in the presence of said phenol derivative. Antagonistic action of the phenol derivatives of the invention is determined by measuring the distance (mm) at 50% reaction between the dose-response curve in the absence of said phenol derivative and one in the presence of said phenol derivative and calculating pA2 on the basis of the distance from the Van Rossum simplified table.
Note that the pA2 in the table means a -log value of the concentration of a phenol derivative of the invention necessary for parallel displacement of the histamine dose-response curve to the side of a twice increase in concentration.

SMILES | IC50 (5-lipoxygenase) [µM] | Inhibitory activity against ethanol hydrochloric acid ulcer, Percent inhibition of ulceration [1] [%] | Kb (histamine H2 receptors) [µM]
COc1cc(CCCCC(=O)NCCCOc2cccc(CN3CCCCC3)c2)ccc1O [Example 1, N-[3-(3(1-piperidinylmethyl)phenoxy)propyl]-5-(4-hydroxy-3methoxyphenyl)pentylamide] | 6.1 | 89.5 | 0.0575
O=C(CCCCc1ccc(O)cc1)NCCCOc1cccc(CN2CCCCC2)c1 [Example 2, N-[3-(3-(1piperidinylmethyl)phenoxy)propyl]-5-(4-hydroxyphenyl)-pentylamide] | 120 | 33.4 | 0.316
CC(C)(C)c1cc(CCCCC(=O)NCCCOc2cccc(CN3CCCCC3)c2)cc(C(C)(C)C)c1O [Example 3, N-[3-(3-(1-piperidinylmethyl)phenoxy)propyl]-5-(3,5-di-tert-butyl-4-hydroxyphenyl)pentylamide] | 20 | 42.9 | 2.57
COc1cc(CCCCC(=O)NCCCOc2cccc(CN3CCCCC3)c2)cc(OC)c1O [Example 4, N-[3-(3-(1-piperidinylmethyl)phenoxy)propyl]-5-(4-hydroxy-3,5-dimethoxyphenyl)pentylamide] | 13 | 62.5 | 0.49
COc1cc(CCC(=O)NCCCOc2cccc(CN3CCCCC3)c2)ccc1O [Example 5, N-[3-(3-(1-piperidinylmethyl)phenoxy)propyl]-3-(4-hydroxy-3-methoxyphenyl)propylamide] | 32 | 48.0 | 0.631
COc1cc(CCCC(=O)NCCCOc2cccc(CN3CCCCC3)c2)ccc1O [Example 6, N-[3-(3-(1-piperidinylmethyl)phenoxy)propyl]-4-(4-hydroxy-3-methoxyphenyl)butylamide] | 8.9 | 76.5 | 0.0501
O=C(CCCCc1ccc(O)c(O)c1)NCCCOc1cccc(CN2CCCCC2)c1 [Example 7, N-[3-(3-(1piperidinylmethyl)phenoxy)propyl]-5-(3,4dihydroxyphenyl)pentylamide] | 5.9 | 83.7 | 0.141
